Measurements published in patent publication US20070021508A1, “Method for treatment of Helicobacter pylori infection and/or an associated disease” (priority 2005, published 2007).
Converted amounts (≈) assume the structure as drawn.

Legend:
HP 238 [1] = experiment: Disc diffusion assay against HP for various compounds, HP 238; type: cell-based, Helicobacter pylori; conditions: for Disc diffusion diameter: 40 μl on 8 mm disc, 48 hours; for anti-HP activity compared to other compounds: HP 238 lawn, disc diffusion
[2] = ornithine transcarbamylase-deficient patients, median dose 352 mg/kg/day, 26-month follow-up; cited from earlier work
HP 43504 [3] = experiment: Disc diffusion assay against HP for various compounds, HP 43504; type: cell-based, Helicobacter pylori; conditions: for Disc diffusion diameter: 40 μl on 8 mm disc, 48 hours; for anti-HP activity compared to other compounds: HP 43504 lawn, disc diffusion
HP 43504 [4] = experiment: Disc diffusion assay against HP for PB plus various antibiotics, HP 43504; type: cell-based, Helicobacter pylori; conditions: HP 43504, CDC agar, 8 mm disc, 48 hours; AMO 0.015 μg/20 μl, MTZ 5 μg/20 μl, TC 0.5 μg/20 μl, plus 20 μl water or 4-PB 2 mg/20 μl
Procedure: (§1) HP 43504 and […] were further used for testing PB in combination with various antibiotics in disc diffusion assays. After 2 days' pre-culture in a microaerophilic condition (O2 5%, CO2 10%, N2 85%) at 37° C., HP was suspended in a Brucella broth containing 5% sucrose to adjust its clone density at 1×10^8 CFU/ml. Then 100 μl of the bacterial suspension was inoculated onto a CDC agar plate. […] The agar plates were later transferred to a microaerobic jar to incubate at 37° C. The diameter of each inhibition zone (clear zone size) in the bacterial lawn was measured 48 hours later. The tested combinations used in this experiment comprised 4-PB (50 mg/ml) with amoxicillin (AMO), metronidazole (MTZ) or tetracycline (TC).

[5] = tested on: H. pylori ATCC43504 (HP 43504); experiment: Minimum inhibitory concentration (MIC) against HP 43504; type: cell-based; conditions: Helicobacter pylori
Procedure: (§2) The HP strains used in the present studies are H. pylori ATCC43504 (HP 43504) and HP 238. HP 238 was isolated from a patient with MALToma in National Cheng Kung University Hospital, Tainan, Taiwan, and used as an antibiotic sensitive control. These strains were cultured under a microaerophilic condition (O2 5%, CO2 10%, N2 85%) in a 37° C. chamber.

HP 238 [6] = experiment: Disc diffusion assay against HP for PB plus various antibiotics, HP 238; type: cell-based, Helicobacter pylori; conditions: HP 238, CDC agar, 8 mm disc, 48 hours; AMO 0.015 μg/20 μl, MTZ 5 μg/20 μl, TC 0.5 μg/20 μl, plus 20 μl water or 4-PB 2 mg/20 μl
Procedure: as §1, with “The tested combinations used in this experiment comprised 4-PB (50 mg/ml) with amoxicillin (AMO), metronidazole (MTZ) or tetracycline (TC).” left out

HP 238 [7] = experiment: Minimum inhibitory concentration (MIC) against HP 238; type: cell-based; conditions: Helicobacter pylori; against clinically isolated strain HP 238
Procedure: as §2

[8] = HP 238, Brucella agar, 50 mg/ml
[9] = HP 238, Brucella agar, 100 mg/ml
[10] = HP 43504, Brucella agar, 50 mg/ml
[11] = HP 43504, Brucella agar, 100 mg/ml
[12] = HP 238, 100 mg/ml, no clear zone outside the paper disc
[13] = HP 43504, 100 mg/ml, no clear zone outside the paper disc

Compound | Disc diffusion diameter (HP 238 [1]; [9]) | Disc diffusion diameter (HP 238 [1]; HP 238, CDC agar, 50 mg/ml) | Disc diffusion diameter (HP 43504 [3]; [11]) | Disc diffusion diameter (HP 43504 [3]; HP 43504, CDC agar, 50 mg/ml) | anti-HP activity (HP 238 [1]; [12]) | Disc diffusion diameter (HP 238 [1]; HP 238, CDC agar, 100 mg/ml) | anti-HP activity (HP 43504 [3]; [13]) | Disc diffusion diameter (HP 43504 [3]; HP 43504, CDC agar, 100 mg/ml) | diameter of inhibition zone (clear zone size) (HP 43504 [4]) | MIC [5] | diameter of inhibition zone (clear zone size) (HP 238 [6]) | also measured
4-phenylbutyrate [4-PB] | 64 mm | 23 mm | 45 mm | 17 mm | – | – | – | – | – | – | – | Disc diffusion diameter (HP 238 [1]; HP 238, Brucella agar, 5 mg/ml): 8 mm; Disc diffusion diameter (HP 238 [1]; HP 238, Brucella agar, 25 mg/ml): 26 mm; Disc diffusion diameter (HP 238 [1]; [8]): 40 mm; Disc diffusion diameter (HP 238 [1]; HP 238, CDC agar, 5 mg/ml): 8 mm; Disc diffusion diameter (HP 238 [1]; HP 238, CDC agar, 25 mg/ml): 9 mm; anti-HP activity compared to other compounds (HP 238 [1]): much better anti-HP activity; side effects related to therapy [2]: neither hyperammonemic episodes requiring hospitalization nor side effects related to therapy occurred; Disc diffusion diameter (HP 43504 [3]; HP 43504, Brucella agar, 5 mg/ml): 8 mm; Disc diffusion diameter (HP 43504 [3]; HP 43504, Brucella agar, 25 mg/ml): 8 mm; Disc diffusion diameter (HP 43504 [3]; [10]): 33 mm; Disc diffusion diameter (HP 43504 [3]; HP 43504, CDC agar, 5 mg/ml): 8 mm; Disc diffusion diameter (HP 43504 [3]; HP 43504, CDC agar, 25 mg/ml): 8 mm; anti-HP activity compared to other compounds (HP 43504 [3]): much better anti-HP activity
NCCC(N)C(=O)O (centres unmarked) [2,4-DAB, 2,4-diaminobutyric acid] | 8 mm | – | 8 mm | – | no obvious anti-HP activity | 8 mm | no obvious anti-HP activity | 8 mm | – | – | – | –
CCC(N)C(=O)O (centres unmarked) [2-AB, 2-aminobutyric acid] | 8 mm | – | 8 mm | – | no obvious anti-HP activity | 8 mm | no obvious anti-HP activity | 8 mm | – | – | – | –
CCC(C(=O)O)c1ccccc1 (centres unmarked) [2-PB, 2-phenylbutyrate] | – | 14 mm | – | 8 mm | – | – | – | – | – | – | – | Disc diffusion diameter (HP 238 [1]; [8]): 24 mm; anti-HP activity compared to other compounds (HP 238 [1]): much better anti-HP activity; Disc diffusion diameter (HP 43504 [3]; [10]): 18 mm; anti-HP activity compared to other compounds (HP 43504 [3]): much better anti-HP activity
CCCC(=O)[O-].[Na+] [Butyrate, Sodium butyrate] | – | 11 mm | – | 8 mm | – | – | – | – | – | – | – | disc diffusion capacity (HP 238 [1]; HP 238, compared with 4-PB or 2-PB): much smaller than 4-PB or 2-PB; disc diffusion capacity (HP 43504 [3]; HP 43504, compared with 4-PB or 2-PB): much smaller than 4-PB or 2-PB
NCCCC(=O)O [GABA, gama-aminobutyric acid] | 8 mm | – | 8 mm | – | no obvious anti-HP activity | 8 mm | no obvious anti-HP activity | 8 mm | – | – | – | –
CCCC(CCC)C(=O)[O-].[Na+] [Valproate, sodium valproate] | – | – | – | – | – | – | – | – | – | – | – | anti-HP activity (HP 238 [1]; HP 238, 2 mg/ml to 16 mg/ml): no obvious anti-HP activity; Disc diffusion diameter (HP 238 [1]; HP 238, CDC agar, 2 mg/ml): 8 mm; Disc diffusion diameter (HP 238 [1]; HP 238, CDC agar, 4 mg/ml): 8 mm; Disc diffusion diameter (HP 238 [1]; HP 238, CDC agar, 8 mg/ml): 8 mm; Disc diffusion diameter (HP 238 [1]; HP 238, CDC agar, 16 mg/ml): 8 mm; anti-HP activity (HP 43504 [3]; HP 43504, 2 mg/ml to 16 mg/ml): no obvious anti-HP activity; Disc diffusion diameter (HP 43504 [3]; HP 43504, CDC agar, 2 mg/ml): 8 mm; Disc diffusion diameter (HP 43504 [3]; HP 43504, CDC agar, 4 mg/ml): 8 mm; Disc diffusion diameter (HP 43504 [3]; HP 43504, CDC agar, 8 mg/ml): 8 mm; Disc diffusion diameter (HP 43504 [3]; HP 43504, CDC agar, 16 mg/ml): 8 mm
CC1(C)S[C@@H]2[C@H](NC(=O)[C@H](N)c3ccc(O)cc3)C(=O)N2[C@H]1C(=O)O [amoxicillin] | – | – | – | – | – | – | – | – | 8 mm | 0.12 µg/mL (≈ 0.328 µM) | 8 mm | –
Cc1ncc([N+](=O)[O-])n1CCO [metronidazole] | – | – | – | – | – | – | – | – | 8 mm | 256 µg/mL (≈ 1500 µM) | 16 mm | MIC (HP 238 [7]): 0.25 µg/mL (≈ 1.46 µM)
CN(C)[C@@H]1C(O)=C(C(N)=O)C(=O)[C@@]2(O)C(O)=C3C(=O)c4c(O)cccc4[C@@](C)(O)[C@H]3C[C@@H]12 [tetracycline] | – | – | – | – | – | – | – | – | 8 mm | 1 µg/mL (≈ 2.25 µM) | 15 mm | –
